Among the data in US8653091B2, “Pyrid-2yl fused heterocyclic compounds, and compositions and uses thereof” (Evotec AG, priority 2007, dated 2014) are IC50 values, retold here.

The target of this test is P2X3 (Homo sapiens (Human), UniProt P56373). Put plainly: Calcium uptake assay (P2X antagonist assay), P2X3. The class given is cell-based. The conditions noted are these: inhibition of agonist-induced calcium influx. The source says:
Human P2X3 (Accession no. NM_002559), P2X2 (Accession no. NM_170682) and Rat P2X3 (Accession no. NM_031075) and P2X2 (Accession no. NM_053656) are cloned into a mammalian expression vector (e.g., pcDNA5/TO or pcDNA3 Invitrogen). The human P2X2/3 chimera clone is created as described by Neelands et al, and then cloned into an expression vector as above. Receptors are expressed in cells (e.g., HEK293 or 1321N1 (obtained from the ECACC)) via transient transfection using standard lipid mediated transfection, or by creation of stable transfectants for each receptor. For expression of the P2X2/3 heteromeric receptor, the P2X3 expression vector is stably transfected into a cell line already stably expressing P2X2. P2X2/3 heteromer function is isolated using pharmacological methods. Cell lines are maintained in DMEM+5% Glutamax, the appropriate level of selective antibiotic, and 10% heat inactivated FBS.
Functional activity of compounds at the P2X receptor is determined by measuring their ability to inhibit agonist-induced calcium influx. Compounds are tested for antagonist activity against the P2X2/3 chimera, the P2X3 homomer, or the P2X2/3 heteromer. At the start of each screening day, the agonist EC50 is determined. Compound % inhibition or IC50s are subsequently determined using a pre-determined agonist concentration (EC50-90 depending on cell line) as a stimulus. The agonists used are αβMeATP, ATP, or other ATP analogs. Compounds may be tested at concentrations ranging from 1 μM to 10 μM.
To test for antagonist activity, cells expressing the appropriate receptor are seeded onto 96 or 384 well plates 18-24 hours prior to assay. On the day of the assay, cells are loaded with calcium-sensitive fluorescent dye (e.g., Fluo-4 no wash reagent-Invitrogen cat#F36206, or the BD™ PBX Calcium Assay Kit—BD cat#640175) in Hank's Buffered Salt Solution (HESS) with up to 10 mM supplemental CaCl2. Plates are incubated at 37° C. and then equilibrated at room temperature. Antagonism of agonist-induced calcium influx is measured using a fluorescent imaging plate reader (e.g. FLIPR^TETRA, Molecular Devices, Sunnyvale, Calif.). The assay comprises two stages: a pre-treatment phase followed by a treatment phase. Compounds may be tested as follows: For the pre-treatment phase, 50 μL of 3× concentration of test compound in HBSS is added to cells containing 100 μL of dye loading media to achieve a final concentration of 1× test compound. For the treatment phase, at a set interval after pre-treatment (1-30 minutes), 50 μL of 1× test compound plus […] solution is added, resulting in a final concentration of 1× compound and 1× agonist. Fluorescence is measured at 0.1-3 second intervals—with an excitation wavelength of 494 nm and an emission wavelength of 515 nm. Responses are measured as (peak fluorescence after agonist addition) minus (baseline fluorescence prior to treatment). Percent inhibition is calculated as follows: […]
IC50 values are determined by analyzing dose response data in a 4 parameter logistic fit using GraphPad Prizm.

P2X3, sequence (P56373 whole entry): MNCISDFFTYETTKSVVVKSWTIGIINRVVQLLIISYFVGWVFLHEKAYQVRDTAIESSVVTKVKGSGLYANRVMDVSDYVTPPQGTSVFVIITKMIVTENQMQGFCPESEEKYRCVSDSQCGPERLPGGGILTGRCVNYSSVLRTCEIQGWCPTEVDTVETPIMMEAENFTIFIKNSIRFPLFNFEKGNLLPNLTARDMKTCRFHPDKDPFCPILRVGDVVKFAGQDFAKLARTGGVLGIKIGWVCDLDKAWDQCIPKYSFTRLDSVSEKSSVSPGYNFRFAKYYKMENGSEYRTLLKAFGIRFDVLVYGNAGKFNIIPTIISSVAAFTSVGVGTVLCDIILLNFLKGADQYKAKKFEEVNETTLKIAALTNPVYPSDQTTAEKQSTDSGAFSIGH

For the molecule `Cc1ccc(N2CCc3ncnc(NC(C)c4cccc(C(F)(F)F)c4)c3C2)nc1` (centres unmarked) [Compound 4, [6-(5-Methyl-pyridin-2-yl)-5,6,7,8-tetrahydro-pyrido[4,3-d]pyrimidin-4-yl]-[1-(3-trifluoromethyl-phenyl)-ethyl]-amine], the IC50 (as a rule, the concentration at which inhibition is half-maximal) was 301 nM.
Then `Cc1ccc(N2CCc3ncnc(N[C@@H](C)c4ccc(Cl)cc4)c3C2)nc1` [Compound 6, [(S)-1-(4-Chloro-phenyl)-ethyl]-[6-(5-methyl-pyridin-2-yl)-5,6,7,8-tetrahydro-pyrido[4,3-d]pyrimidin-4-yl]-amine], with more than 7200 nM; and `Cc1ccc(N2CCc3ncnc(NC(C)c4ccncc4)c3C2)nc1` (centres unmarked) [Compound 9, [6-(5-Methyl-pyridin-2-yl)-5,6,7,8-tetrahydro-pyrido[4,3-d]pyrimidin-4-yl]-(1-pyridin-4-yl-ethyl)-amine], with 212 nM.
`CCc1ccc(C(C)Nc2ncnc3c2CN(c2ccc(C)cn2)CC3)cc1` (centres unmarked) [Compound 13, [1-(4-Ethyl-phenyl)-ethyl]-[6-(5-methyl-pyridin-2-yl)-5,6,7,8-tetrahydro-pyrido[4,3-d]pyrimidin-4-yl]-amine]: the IC50 came to 603 nM.
Then `COc1ccccc1C(C)Nc1ncnc2c1CN(c1ccc(C)cn1)CC2` (centres unmarked) [Compound 14, [1-(2-Methoxy-phenyl)-ethyl]-[6-(5-methyl-pyridin-2-yl)-5,6,7,8-tetrahydro-pyrido[4,3-d]pyrimidin-4-yl]-amine], with 137 nM.
Regarding `Cc1ccc(N2CCc3ncnc(NC(C)c4ccccc4Cl)c3C2)nc1` (centres unmarked) [Compound 15, [1-(2-Chloro-phenyl)-ethyl]-[6-(5-methyl-pyridin-2-yl)-5,6,7,8-tetrahydro-pyrido[4,3-d]pyrimidin-4-yl]-amine], the IC50 turned out to be 125 nM.
With `Cc1ccc(N2CCc3ncnc(NC(C)c4cccc(Cl)c4)c3C2)nc1` (centres unmarked) [Compound 16, [1-(3-Chloro-phenyl)-ethyl]-[6-(5-methyl-pyridin-2-yl)-5,6,7,8-tetrahydro-pyrido[4,3-d]pyrimidin-4-yl]-amine], the 50% inhibitory concentration (IC50) amounted to 119 nM.
For `Cc1ccc(N2CCc3ncnc(NC(C)c4ccc(C(F)(F)F)cc4)c3C2)nc1` (centres unmarked) [Compound 26, [6-(5-Methyl-pyridin-2-yl)-5,6,7,8-tetrahydro-pyrido[4,3-d]pyrimidin-4-yl]-[1-(4-trifluoromethyl-phenyl)-ethyl]-amine], the half-inhibitory concentration (IC50) was 245 nM.
Then `Cc1ccc(N2CCc3ncnc(NC(C)c4ccc(Cl)cc4Cl)c3C2)nc1` (centres unmarked) [Compound 27, [1-(2,4-Dichloro-phenyl)-ethyl]-[6-(5-methyl-pyridin-2-yl)-5,6,7,8-tetrahydro-pyrido[4,3-d]pyrimidin-4-yl]-amine], with 415 nM; and `Cc1ccc(N2CCc3ncnc(NC(C)c4ccc(Br)cc4)c3C2)nc1` (centres unmarked) [Compound 28, [1-(4-Bromo-phenyl)-ethyl]-[6-(5-methyl-pyridin-2-yl)-5,6,7,8-tetrahydro-pyrido[4,3-d]pyrimidin-4-yl]-amine], with 212 nM; and `CCC(Nc1ncnc2c1CN(c1ccc(C)cn1)CC2)c1ccccc1` (centres unmarked) [Compound 36, [6-(5-Methyl-pyridin-2-yl)-5,6,7,8-tetrahydro-pyrido[4,3-d]pyrimidin-4-yl]-(1-phenyl-propyl)-amine], with 397 nM.
Then `Cc1ccc(N2CCc3ncnc(N[C@H](CO)c4ccccc4)c3C2)nc1` [Compound 37, (S)-2-[6-(5-Methyl-pyridin-2-yl)-5,6,7,8-tetrahydro-pyrido[4,3-d]pyrimidin-4-ylamino]-2-phenyl-ethanol], with 161 nM; and `C[C@@H](Nc1ncnc2c1CN(c1ccc(Cl)cn1)CC2)c1ccc(Cl)cc1` [Compound 40, [(R)-1-(4-Chloro-phenyl)-ethyl]-[6-(5-chloro-pyridin-2-yl)-5,6,7,8-tetrahydro-pyrido[4,3-d]pyrimidin-4-yl]-amine], with 344 nM; and `CC[C@@H](Nc1ncnc2c1CN(c1ccc(C)cn1)CC2)c1ccccc1` [Compound 42], with 408 nM.
